Data published in patent publication US20230055705A1, “SUBSTITUTED THIOPHENE CARBOXAMIDES AND DERIVATIVES THEREOF” (Bayer Aktiengesellschaft, priority 2019, published 2023).

Assay: LogP by HPLC on reversed phase columns (EEC directive 79/831 Annex V.A8)
Type: physicochemical
Settings: not given
Procedure: In the above tables, measurement of LogP values was performed according to EEC directive 79/831 Annex V.A8 by HPLC (High Performance Liquid Chromatography) on reversed phase columns with the following methods: • ^[a]
Calibration was done with straight-chain alkan2-ones (with 3 to 16 carbon atoms) with known LogP values (measurement of LogP values using retention times with linear interpolation between successive alkanones). Lambda-max-values were determined using UV-spectra from 200 nm to 400 nm and the peak values of the chromatographic signals.

Row | SMILES | LogP
1 | NC(=O)CC(NC(=O)c1sc(Cl)c(Cl)c1Cl)C(=O)O (stereo not drawn) [I.001] | 1.81^[a]
2 | NC(=O)CCC(NC(=O)c1sc(Cl)c(Cl)c1Cl)C(=O)O (stereo not drawn) [I.002] | 1.73^[a]
3 | O=C(NC(Cc1c[nH]c2ccccc12)C(=O)O)c1sc(Cl)c(Cl)c1Cl (stereo not drawn) [I.003] | 3.31^[a]
4 | O=C(NC1CCNC1=O)c1sc(Cl)c(Cl)c1Cl (stereo not drawn) [I.004] | 1.98^[a]
5 | COC(=O)C(NC(=O)c1sc(Cl)c(Cl)c1Cl)(C1CC1)C1CC1 [I.005] | 4.51^[a]
6 | CCOC(=O)C(NC(=O)c1sc(Cl)c(Cl)c1Cl)C(=O)OCC [I.006] | 4.19^[a]
7 | COC(=O)[C@@H](CC(N)=O)NC(=O)c1sc(Cl)c(Cl)c1Cl [I.014] | 2.11^[a]
8 | CCOC(=O)C(NC(=O)c1sc(Cl)c(Cl)c1Cl)OC (stereo not drawn) [I.017] | 3.57^[a]
9 | CCOC(=O)CN(OC)C(=O)c1sc(Cl)c(Cl)c1Cl [I.018] | 3.64^[a]
10 | O=C1SCCC1NC(=S)c1sc(Cl)c(Cl)c1Cl (stereo not drawn) [I.019] | 4.37^[a]
11 | COC(=O)C(C1CC1)N(O)C(=O)c1sc(Cl)c(Cl)c1Cl (stereo not drawn) [I.021] | 3.00^[a]
12 | O=C(NC1CCSC1=O)c1sc(Cl)c(Cl)c1Cl (stereo not drawn) [I.023] | 3.17^[a]
13 | CC1(C)SC(=O)C1NC(=O)c1sc(Cl)c(Cl)c1Cl (stereo not drawn) [I.024] | 4.04^[a]
14 | CCOC(=O)CCNC(=O)c1sc(Cl)c(Cl)c1Cl [I.026] | 3.46^[a]
15 | CC(C)OC(=O)C1(C2(NC(=O)c3sc(Cl)c(Cl)c3Cl)CC2)CC1 [I.027] | 5.35^[a]
16 | O=C1CC(NC(=O)c2sc(Cl)c(Cl)c2Cl)CN1 (stereo not drawn) [I.028] | 1.86^[a]
17 | O=C(NC1CCOC1=O)c1sc(Cl)c(Cl)c1Cl (stereo not drawn) [I.029] | 2.48^[a]
18 | O=C1CC(NC(=O)c2sc(Cl)c(Cl)c2Cl)CCN1 (stereo not drawn) [I.030] | 1.93^[a]
19 | O=C(NC1CCCNC1=O)c1sc(Cl)c(Cl)c1Cl (stereo not drawn) [I.031] | 2.20^[a]

Row | SMILES | LogP
20 | N#CC1(NC(=O)c2sc(Cl)c(Cl)c2Cl)CC1 [I.032] | 2.88^[a]
21 | N#CC(NC(=O)c1sc(Cl)c(Cl)c1Cl)c1ccccc1 (stereo not drawn) [I.034] | 3.92^[a]
22 | N#CC(Cc1ccccc1)NC(=O)c1sc(Cl)c(Cl)c1Cl (stereo not drawn) [I.035] | 4.13^[a]
23 | CCSC(=O)CNC(=O)c1sc(Cl)c(Cl)c1Cl [I.036] | 3.75^[a]
24 | CCOC(=O)C1(NC(=S)c2sc(Cl)c(Cl)c2Cl)CC1 [I.037] | 4.61^[a]
25 | CCSC(=O)C(CC(C)C)NC(=O)c1sc(Cl)c(Cl)c1Cl (stereo not drawn) [I.039] | 5.54^[a]
26 | CCSC(=O)C(NC(=O)c1sc(Cl)c(Cl)c1Cl)C(C)C (stereo not drawn) [I.040] | 5.34^[a]
27 | O=C(CNC(=O)c1sc(Cl)c(Cl)c1Cl)SCc1ccccc1 [I.041] | 4.56^[a]
28 | O=C(CNC(=O)c1sc(Cl)c(Cl)c1Cl)Sc1ccccc1 [I.042] | 4.27^[a]
29 | O=C(N[C@H]1CCSC1=O)c1sc(Cl)c(Cl)c1Cl [I.043] | 3.24^[a]
30 | CCOC(=O)C1(CNC(=O)c2sc(Cl)c(Cl)c2Cl)CC1 [I.045] | 4.27^[a]
31 | CCOC(=O)C1(C2(NC(=O)c3sc(Cl)c(Cl)c3Cl)CC2)CC1 [I.047] | 4.83^[a]
32 | O=C(NC1(C(=O)NO)CC1)c1sc(Cl)c(Cl)c1Cl [I.050] | 1.91^[a]
33 | CSCCC(NC(=O)c1sc(Cl)c(Cl)c1Cl)C(=O)O (stereo not drawn) [I.051] | 3.01^[a]
34 | CN(CC#N)C(=O)C1(NC(=O)c2sc(Cl)c(Cl)c2Cl)CC1 [I.052] | 2.44^[a]
35 | CONC(=O)C1(NC(=O)c2sc(Cl)c(Cl)c2Cl)CC1 [I.055] | 2.14^[a]
36 | O=C(NC(CO)C(=O)O)c1sc(Cl)c(Cl)c1Cl (stereo not drawn) [I.056] | 1.94^[a]
37 | CCOC(=O)C1(NC(=O)c2sc(Cl)c(Cl)c2Cl)CN(C(=O)OC(C)(C)C)C1 [I.057] | 4.47^[a]
38 | CCOC(=O)C(CC1CC1)NC(=O)c1sc(Cl)c(Cl)c1Cl (stereo not drawn) [I.058] | 4.81^[a]

Row | SMILES | LogP
39 | NC(=O)C1(NC(=O)c2sc(Cl)c(Cl)c2Cl)CC1 [I.060] | 2.00^[a]
40 | N#CCNC(=O)CNC(=O)c1sc(Cl)c(Cl)c1Cl [I.062] | 2.21^[a]
41 | CN(CC#N)C(=O)CNC(=O)c1sc(Cl)c(Cl)c1Cl [I.063] | 2.62^[a]
42 | CN(C)C(=O)CNC(=O)c1sc(Cl)c(Cl)c1Cl [I.065] | 2.47^[a]
43 | CCOC(=O)C1(NC(=O)c2sc(Cl)c(Cl)c2Cl)CCCC1 [I.070] | 4.61^[a]
44 | COC(=O)C1(NC(=O)c2sc(Cl)c(Cl)c2Cl)CCOCC1 [I.071] | 3.00^[a]
45 | COC(=O)C1(NC(=O)c2sc(Cl)c(Cl)c2Cl)CCC(F)(F)CC1 [I.072] | 3.99^[a]
46 | CNC(=O)CNC(=O)c1sc(Cl)c(Cl)c1Cl [I.073] | 2.07^[a]
47 | COC(=O)[C@H](Cc1ccccc1)NC(=O)[C@H](CC(=O)O)NC(=O)c1sc(Cl)c(Cl)c1Cl [I.074] | 3.19^[a]
48 | COC(=O)[C@H](CCC(=O)O)NC(=O)c1sc(Cl)c(Cl)c1Cl [I.075] | 2.57^[a]
49 | COC(=O)C1(NC(=O)c2sc(Cl)c(Cl)c2Cl)CCOC1 (stereo not drawn) [I.076] | 3.00^[a]
50 | CCOC(=O)C1(NC(=O)c2sc(Cl)c(Cl)c2Cl)CCOCC1 [I.077] | 3.39^[a]
51 | COC(=O)C1(NC(=O)c2sc(Cl)c(Cl)c2Cl)CSC1 [I.080] | 3.50^[a]
52 | COC(=O)[C@H](CC(=O)O)NC(=O)c1sc(Cl)c(Cl)c1Cl [I.081] | 2.46^[a]
53 | COC(=O)[C@H](CCC(N)=O)NC(=O)c1sc(Cl)c(Cl)c1Cl [I.082] | 2.19^[a]
54 | CCOC(=O)[C@H](CO)NC(=O)c1sc(Cl)c(Cl)c1Cl [I.083] | 2.78^[a]
55 | CCOC(=O)C(CCSC)NC(=O)c1sc(Cl)c(Cl)c1Cl (stereo not drawn) [I.084] | 4.47^[a]
56 | CCOC(=O)C1(NC(=O)c2sc(Cl)c(Cl)c2Cl)CSC1 [I.085] | 3.92^[a]

Further lines, results first:

Row | LogP | SMILES
57 | 4.81^[a] | CC(C)(C)OC(=O)C1(NC(=O)c2sc(Cl)c(Cl)c2Cl)CC(F)(F)C1 [I.086]
58 | 4.48^[a] | COC(=O)C1(NC(=O)c2sc(Cl)c(Cl)c2Cl)CC(C)(C)C1 [I.087]
59 | 3.65^[a] | COC(=O)C1(NC(=O)c2sc(Cl)c(Cl)c2Cl)CC(F)(F)C1 [I.088]
60 | 5.45^[a] | CCSC(=O)C(NC(=O)c1sc(Cl)c(Cl)c1Cl)C(C)C (stereo not drawn) [I.090]
61 | 6.17^[a] | CCOC(=O)C(NC(=S)c1sc(Cl)c(Cl)c1Cl)C(C)C (stereo not drawn) [I.092]
62 | 5.61^[a] | COC(=O)C(NC(=S)c1sc(Cl)c(Cl)c1Cl)C(C)C (stereo not drawn) [I.093]
63 | 3.43^[a] | CCNC(=O)[C@@H](NC(=O)c1sc(Cl)c(Cl)c1Cl)C(C)C [I.094]
64 | 5.28^[a] | CC(C)(C)OC(=O)C1(NC(=O)c2sc(Cl)c(Cl)c2Cl)CCC1 [I.097]
65 | 5.20^[a] | CCCCOC(=O)C1(NC(=O)c2sc(Cl)c(Cl)c2Cl)CCC1 [I.099]
66 | 5.00^[a] | O=C(NC1(C(=O)OCc2ccccc2)CCC1)c1sc(Cl)c(Cl)c1Cl [I.100]
67 | 4.74^[a] | CCCOC(=O)C1(NC(=O)c2sc(Cl)c(Cl)c2Cl)CCC1 [I.101]
68 | 4.93^[a] | O=C(NC1(C(=O)OC2CCC2)CCC1)c1sc(Cl)c(Cl)c1Cl [I.102]
69 | 5.84^[a] | O=C(NC1(C(=O)OC2CCCCC2)CCC1)c1sc(Cl)c(Cl)c1Cl [I.103]
70 | 2.62^[a] | NC(=S)C1(NC(=O)c2sc(Cl)c(Cl)c2Cl)CC1 [I.105]
71 | 2.45^[a] | N#CNC(=O)CNC(=O)c1sc(Cl)c(Cl)c1Cl [I.106]
72 | 2.57^[a] | N#CNC(=O)C1(NC(=O)c2sc(Cl)c(Cl)c2Cl)CC1 [I.107]
73 | 3.69^[a] | COC(=O)C1(NC(=O)c2sc(Cl)c(Cl)c2Cl)CCC1 [I.112]
74 | 3.20^[a] | CN(C)C(=S)C1(NC(=O)c2sc(Cl)c(Cl)c2Cl)CC1 [I.115]

Row | LogP | SMILES
75 | 3.78^[a] | CCOC(=O)CN(C(=O)c1sc(Cl)c(Cl)c1Cl)C1CC1 [I.116]
76 | 2.49^[a] | O=C(N[C@H]1CCOC1=O)c1sc(Cl)c(Cl)c1Cl [I.121]
77 | 5.11^[a] | COC(=O)C(C)(Cc1ccccc1)NC(=O)c1sc(Cl)c(Cl)c1Cl (stereo not drawn) [I.122]
78 | 4.47^[a] | CCOC(=O)C(NC(=O)c1sc(Cl)c(Cl)c1Cl)C(F)(F)F (stereo not drawn) [I.123]
79 | 2.93^[a] | O=C(NC1CCCCNC1=O)c1sc(Cl)c(Cl)c1Cl (stereo not drawn) [I.125]
80 | 2.24^[a] | O=C(N[C@H]1CCCNC1=O)c1sc(Cl)c(Cl)c1Cl [I.126]
81 | 3.94^[a] | COC(=O)C(CCSC(C)=O)NC(=O)c1sc(Cl)c(Cl)c1Cl (stereo not drawn) [I.127]
82 | 2.89^[a] | CNC(=S)CNC(=O)c1sc(Cl)c(Cl)c1Cl [I.128]
83 | 3.68^[a] | CN(C)C(=S)CNC(=O)c1sc(Cl)c(Cl)c1Cl [I.129]
84 | 3.81^[a] | CC(C)C(C#N)NC(=O)c1sc(Cl)c(Cl)c1Cl (stereo not drawn) [I.130]
85 | 5.00^[a] | N#CC1(NC(=O)c2sc(Cl)c(Cl)c2Cl)CCC(c2ccccc2)CC1 (stereo not drawn) [I.131]
86 | 3.19^[a] | CC(C)(C#N)NC(=O)c1sc(Cl)c(Cl)c1Cl [I.132]
87 | 3.72^[a] | N#CC1(NC(=O)c2sc(Cl)c(Cl)c2Cl)CCSCC1 [I.133]
88 | 6.41^[a] | N#CC1(NC(=O)c2sc(Cl)c(Cl)c2Cl)CCC(C2CCCCC2)CC1 (stereo not drawn) [I.134]
89 | 3.64^[a] | COC(=O)CC(C)NC(=O)c1sc(Cl)c(Cl)c1Cl (stereo not drawn) [I.135]
90 | 3.36^[a] | CCNC(=O)SC[C@H](NC(=O)c1sc(Cl)c(Cl)c1Cl)C(=O)OC [I.141]
91 | 1.70^[a] | O=C(CNC(=O)c1sc(Cl)c(Cl)c1Cl)NO [I.148]
92 | 4.74^[a] | CC(C)OC(=O)C1(NC(=O)c2sc(Cl)c(Cl)c2Cl)CCC1 [I.150]

Same assay, conditions: reversed phase HPLC columns, given in the preparation examples; method not marked

Row | chromatographic logP | SMILES
93 | 2.39 | O=C(NC1(C(=O)O)CC1)c1sc(Cl)c(Cl)c1Cl [1-{[(3,4,5-trichloro-2-thienyl)carbonyl]amino}cyclopropanecarboxylic acid]
